Experiments:
HCT116 cells = assay: Cell viability assay (MTT); format: cell-based, human; details: determined after 48 h (n = 4)
Procedure: (§1) Human colon adenocarcinoma HCT116 cells were purchased from ATCC (Manassas, Va.) and cultured in Dulbecco's modified Eagle's medium (Invitrogen, Carlsbad, Calif.) supplemented with 10% fetal bovine serum (HyClone, Logan, Utah) at 37° C. humidified air and 5% CO2.
HCT116 cells were seeded at a density of 1×10^4 cells per well in 96-well plates. 24 h later the cells were treated with various concentrations of apratoxins or solvent control. After 48 h of incubation, cell viability was detected using MTT according to the manufacturer's instructions (Promega, Madison, Wis.).

Microsomal stability = format: in vitro ADME, mouse
Procedure: HPLC-MS was done on a 3200 QTRAP (Applied Biosystems) equipped with a Shimadzu (Kyoto, Japan) UFLC System. Mouse serum and harmine were purchased from Sigma-Aldrich. Pooled CD1 mouse liver (female) microsomes were purchased from XenoTech, LCC (Lenexa, Kans.) with protein concentrations of 0.5 mg/ml. HCT116 cell lysates were prepared with PhosphoSafe lysis buffer (Novagen). Protein concentration was determined by using the BCA Assay. Analysis was carried out similarly as previously described [Liu, Y.; Salvador, L. A.; Byeon, S.; Ying, Y.; Kwan, J. C.; Law, B. K.; Hong, J.; Luesch. H. J. Pharmacol. Exp. Ther. 2010, 335, 351-361].
The stability of apratoxin A, S4 (BK), S7 (BL), S8 (BM) and S9 (BN) in the presence of mouse microsomes was determined by using an adaptation of a published procedure [Ackley, D. C.; Rockich, K. T.; Baker, T. R. Optimization in Drug Discovery: In Vitro Methods (Series: Methods in Pharmacology and Toxicology) (eds Yan Z, Caldwell J W) 2004, pp 151-162, Springer, New Jersey]. In brief, microsomes were added to prewarmed phosphate buffer (100 mM, pH 7.4) at 37° C. Apratoxin A, BK, BL, BM, or BN (3 μL) were added to the microsomal preparation followed by NADPH cofactor solution (1.3 mM NADP, 3.3 mM glucose 6-phosphate, 0.4 U/mL glucose-6-phosphate dehydrogenase, 3.3 mM MgCl2). The reaction was allowed to proceed for 3 min to 3 h (7 time points) at 37° C. (thermomixer, 1050 rpm). The reaction was quenched by addition of ethyl acetate and subsequently spiked with harmine. The zero time point was defined by denaturing the microsomes with ethyl acetate before the addition of apratoxins. Incubation of apratoxins with microsomes alone was also performed following the same procedure to determine NADPH-dependent metabolism. The final concentration of the incubation mixture contained 0.5 mg/ml protein concentration and 1 μM apratoxins.
(§2) Analysis of apratoxin A, S4 (BK), S7 (BL), S8 (BM) and S9 (BN) was done by using HPLC-MS [column, Onyx Monolithic C18 (3.0×100 mm), Phenomenex (Torrance, Calif.); solvent, water (solvent A) acetonitrile (solvent B); flow rate, 0.5 ml/min; detection by electrospray ionization-MS in positive ion mode (MRM scan)]. A stepwise gradient elution was used starting at 60% B and 40% A, then increasing to 80% B at 5 min and maintained at this condition for 5 min. Parameters were optimized before analysis by using direct syringe infusion. The retention times (tR, min; MRM ion pair) of the analytes and internal standard are as follows: harmine (2.2; 213.1→169.9), apratoxin A (4.7; 841.4→445.2), apratoxin S4 (BK) (4.1; 828.5→432.2), apratoxin S7 (BL) (4.05; 814.5→418.2), apratoxin S8 (BM) (5.2; 842.5→446.2), apratoxin S9 (BN) (4.9; 828.5→432.2). Compound-dependent parameters used were as follows: apratoxin A, declustering potential (DP) 51, entrance potential (EP) 12, collision energy (CE) 45, collision cell exit potential (CXP) 6, collision cell entrance potential (CEP) 32; and harmine, DP 56.0, EP 4.5, CE 44.0, CXP 5, CEP 16.0. Source gas parameters used were as follows: curtain gas, 15.0; collision gas low, ionspray voltage 5500; temperature, 600.0; ion source gas 150.0; ion source gas 2 60.0.
(§3) Calibration curves for apratoxin A, S4 (BK), S7 (BL), S8 (BM) and S9 (BN) in the presence of mouse serum, HCT116 cell lysates, and aqueous solutions were generated by least-square linear regression analysis of the analyte peak area and internal standard peak area ratio against the nominal concentration of the standard solutions. A linear regression analysis was performed, and the concentration of remaining apratoxins at each time point was determined through interpolation for plasma, cellular, and aqueous stability experiments. The amount of remaining apratoxins with microsome incubation was determined from the peak area ratio of apratoxins at tx (3 min to 3 h) and t0. All calculations were done by using Analyst 1.4.2 (Applied Biosystems) Quantitate Mode.

[1] = Cellular stability in HCT116 cell lysate; format: in vitro ADME, human; details: HCT116 protein lysate 0.7 mg/mL, up to 24 h, FIG. 2D
Procedure: Aliquots of HCT116 cell lysates were diluted with 25 mM Tris-HCl buffer, pH 8.0, to give a final reaction volume of 100 μL and protein concentration of 0.7 mg/mL. Cell lysate solutions were incubated with 10 μL of apratoxin A, BK, BL, BM, or BN (25 μg/mL) for 0.25 min to 24 h (nine time points). Remaining apratoxin A, BK, BL, BM, or BN were extracted from the reaction solution at the end of the incubation periods with ethyl acetate using the same procedure as described for the plasma stability assay.
as §2, §3

[2] = Plasma stability in mouse serum; format: in vitro ADME; details: up to 24 h, FIG. 2C
Procedure: In vitro plasma stability of apratoxin A, S4 (BK), S7 (BL), S8 (BM) and S9 (BN) was done by using a modification of a published method [Chen, X.; Gardner, E. R.; Figg, W. D. J. Chromatogr. B Analyt. Technol. Biomed. Life Sci. 2008, 86, 153-158]. Ten microliters of apratoxin A, BK, BL, BM, or BN (25 μg/mL) were added to 100 μL of mouse serum, and the solution was vortex-mixed for 15 s and incubated for 0.25 min to 24 h (11 time points). At the end of each incubation period, 400 μL of ethyl acetate was added to each tube, followed by 200 μL of harmine to quench the reaction and to extract the remaining apratoxin A or S4 (BK), S7 (BL), S8 (BM) and S9 (BN). Samples were further incubated in a thermomixer at 27° C. (750 rpm, 5 min) and later centrifuged for 5 min at 1643 g. The ethyl acetate layer was collected and evaporated to dryness under nitrogen. Samples were reconstituted in 50 μL of acetonitrile. A volume of 10 μL of the reconstituted solution was injected into the HPLC-MS system.
as §2, with “Compound-dependent parameters used were as follows: apratoxin A, declustering potential (DP) 51, entrance potential (EP) 12, collision energy (CE) 45, collision cell exit potential (CXP) 6, collision cell entrance potential (CEP) 32; and harmine, DP 56.0, EP 4.5, CE 44.0, CXP 5, CEP 16.0. Source gas parameters used were as follows: curtain gas, 15.0; collision gas low, ionspray voltage 5500; temperature, 600.0; ion source gas 150.0; ion source gas 2 60.0.” left out
as §3

VEGF-A secretion = assay: Measurement of VEGF-A production (alphaLISA) in HCT116 culture supernatants; format: cell-based, human; details: determined after 12 h (n = 3)
Procedure: as §1
HCT116 cells (1×10^4 cells per well) were seeded in 96-well plates and one day later treated with various concentrations of apratoxins or solvent control. After 12 h of incubation, culture supernatants were collected for detection of VEGF-A by using an alphaLISA kit (PerkinElmer, Waltham, Mass.) following the manufacturer's instructions. Briefly, acceptor bead and anti-VEGF antibody were incubated first with the supernatants for 60 min, donor beads were added later and incubated for another 30 min and then VEGF-A levels detected using Envision (PerkinElmer).

HCT116 xenograft = details: previous efficacious dose 0.25 mg/kg; cited from earlier work

CC[C@H](C)[C@H]1C(=O)N2CCC[C@H]2C(=O)O[C@H](C(C)(C)C)C[C@@H](C)C[C@H](O)[C@H](C)C2=N[C@@H](CCC(=O)N[C@@H](Cc3ccc(OC)cc3)C(=O)N(C)[C@@H](C)C(=O)N1C)CS2 [apratoxin S4 (BK), Apratoxin S4]
IC50 (HCT116 cells): 1430 pM
% remaining (Microsomal stability; microsomes + NADPH, 0 min): 100%
% remaining (Microsomal stability; microsomes + NADPH, 3 min): 39.55 ± 1.06%
% remaining (Microsomal stability; microsomes + NADPH, 5 min): 32.20 ± 16.12%
% remaining (Microsomal stability; microsomes + NADPH, 15 min): 10.07 ± 1.46%
% remaining (Microsomal stability; microsomes + NADPH, 30 min): 9.58 ± 1.03%
% remaining (Microsomal stability; microsomes + NADPH, 60 min): 10.00 ± 0.71%
% remaining (Microsomal stability; microsomes + NADPH, 120 min): 6.02 ± 2.11%
% remaining (Microsomal stability; microsomes only, 0 min): 100%
% remaining (Microsomal stability; microsomes only, 3 min): 87.05 ± 1.63%
% remaining (Microsomal stability; microsomes only, 5 min): 70.80 ± 23.48%
% remaining (Microsomal stability; microsomes only, 15 min): 87.20 ± 2.83%
% remaining (Microsomal stability; microsomes only, 30 min): 73.85 ± 15.49%
% remaining (Microsomal stability; microsomes only, 60 min): 87.10 ± 1.41%
% remaining (Microsomal stability; microsomes only, 120 min): 55.25 ± 12.09%
cellular stability [1]: excellent
plasma stability [2]: excellent
IC50 (VEGF-A secretion): 320 pM
in vivo activity (previous study) (HCT116 xenograft): extremely potent and active in vivo

— US11718645B2, “Macrocyclic therapeutic agents, methods of manufacture, and methods of treatment” (University of Florida Research Foundation, Incorporated, priority 2014, dated 2023)
